In US10562912B2 (C&C Research Laboratories, priority 2013, dated 2020):

How the values were obtained:
Type in all cases: cell-based
STAT3 = target: T1, STAT3 (Homo sapiens, UniProt P40763); experiment: STAT3 reporter gene assay (luciferase), LNCaP stable cell line (pSTAT3-TA-luc), IL-6 stimulation
T1 construct: plasmid pSTAT3-TA-luc), which contains a stably operating STAT3 promoter; endogenous in cells
Procedure, shortened: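 LNCaP cells stably carrying pSTAT3-TA-luc, in RPMI1640 with 3% DCC-FBS, were treated with compound and then stimulated with 10 ng/mL IL-6 for 24–48 h at 37 °C. Luciferase activity was measured in lysates. A parallel plate measured viability by CellTiter-Glo, with stimulated 0.1% DMSO wells as the positive control.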

LNCaP = experiment: Cell growth inhibition assay, prostate cancer cell line LNCaP (medium with 10 ng/mL IL-6); details: Homo sapiens, medium supplemented with 10 ng/mL of IL-6, 10,000 cells/well
DU-145 = experiment: Cell growth inhibition assay, prostate cancer cell line DU-145; details: Homo sapiens, DU-145 prostate cancer cell line
Procedure, shortened: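 Seed DU-145/HCT116 3,000 cells/well, SW626 5,000 cells/well; add compound dilution series; incubate 72–96 h, 37° C., 5% CO2; microscope check for precipitate; CellTiter-Glo, luminescence. Blank = no cells; vehicle = 0.1% DMSO.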

T1 sequence (P40763 whole entry): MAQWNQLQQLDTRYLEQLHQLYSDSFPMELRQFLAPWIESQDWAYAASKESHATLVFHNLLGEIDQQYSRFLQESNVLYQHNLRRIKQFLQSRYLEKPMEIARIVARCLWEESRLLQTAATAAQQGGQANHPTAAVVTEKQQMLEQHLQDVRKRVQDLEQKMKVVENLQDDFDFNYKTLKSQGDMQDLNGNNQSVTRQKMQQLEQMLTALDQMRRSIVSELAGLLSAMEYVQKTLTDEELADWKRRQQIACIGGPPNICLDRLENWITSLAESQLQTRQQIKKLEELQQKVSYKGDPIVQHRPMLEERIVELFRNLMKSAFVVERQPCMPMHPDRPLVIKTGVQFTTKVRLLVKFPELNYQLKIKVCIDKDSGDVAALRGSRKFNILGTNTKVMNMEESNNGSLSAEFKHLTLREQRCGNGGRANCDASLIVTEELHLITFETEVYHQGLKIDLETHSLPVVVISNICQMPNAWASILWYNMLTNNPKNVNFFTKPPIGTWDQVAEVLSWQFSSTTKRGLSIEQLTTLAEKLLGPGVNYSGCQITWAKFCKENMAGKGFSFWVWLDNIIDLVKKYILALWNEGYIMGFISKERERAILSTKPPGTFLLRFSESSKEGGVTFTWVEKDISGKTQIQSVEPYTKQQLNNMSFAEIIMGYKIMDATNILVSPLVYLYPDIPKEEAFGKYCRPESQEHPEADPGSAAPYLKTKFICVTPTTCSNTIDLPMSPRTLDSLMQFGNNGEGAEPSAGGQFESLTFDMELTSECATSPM

In the case of `CS(=O)(=O)Nc1ccc2sc(C(=O)Nc3cc(Cl)nc(Oc4ccc(Cl)cc4)c3)cc2c1` [Example 489, N-(2-chloro-6-(4-chlorophenoxy)pyridin-4-yl)-5-(methylsulfonamido)benzo[b]thiophene-2-carboxamide], the IC50 (STAT3) is reported as 0.11 µM, the IC50 (LNCaP) is reported as 0.11 µM and the IC50 (DU-145) is reported as 0.031 µM.

In the case of `CS(=O)(=O)Nc1ccc2sc(C(=O)Nc3cc(Cl)cc(-c4ccc(F)cc4F)n3)cc2c1` [Example 331, N-(4-chloro-6-(2,4-difluorophenyl)pyridin-2-yl)-5-(methylsulfonamido)benzo[b]thiophene-2-carboxamide], the IC50 (STAT3) is reported as 0.051 µM, the IC50 (LNCaP) is reported as 0.15 µM and the IC50 (DU-145) is reported as 0.034 µM.

With `CN(c1ccc2sc(C(=O)Nc3cc(Cl)cc(C(C)(C)c4ccc(Cl)cc4)c3)cc2c1)S(C)(=O)=O` [Example 221, N-(3-chloro-5-(2-(4-chlorophenyl)propan-2-yl)phenyl)-5-(N-methylmethylsulfonamido)benzo[b]thiophene-2-carboxamide] the IC50 (STAT3) was 0.011 µM, the IC50 (LNCaP) was 0.011 µM and the IC50 (DU-145) was 0.008 µM.

Compound `CC(C)Oc1cc(CN2CCCC2)cc(C(C)(C)c2cc(Cl)cc(NC(=O)c3cc4cc(NS(C)(=O)=O)ccc4s3)c2)c1` [Example 125, N-(3-chloro-5-(2-(3-isopropoxy-5-(pyrrolidin-1-ylmethyl)phenyl)propan-2-yl)phenyl)-5-(methylsulfonamido)benzo[b]thiophene-2-carboxamide] has an IC50 (STAT3) of 0.89 µM, an IC50 (LNCaP) of 2.1 µM and an IC50 (DU-145) of 0.46 µM.

`CS(=O)(=O)Nc1cc2cc(C(=O)Nc3cc(Cl)cc(Oc4cc(F)cc(Cl)c4)c3)sc2cc1Cl` [Example 483, 6-chloro-N-(3-chloro-5-(3-chloro-5-fluorophenoxy)phenyl)-5-(methylsulfonamido)benzo[b]thiophene-2-carboxamide] showed an IC50 (STAT3) of 0.014 µM, an IC50 (LNCaP) of 0.02 µM and an IC50 (DU-145) of 0.01 µM.

In the case of `CN(c1cc(Cl)cc(NC(=O)c2cc3cc(NS(C)(=O)=O)c(Cl)cc3s2)c1)c1ccc(F)cc1F` [Example 442, 6-chloro-N-(3-chloro-5-((2,4-difluorophenyl)(methyl)amino)phenyl)-5-(methylsulfonamido)benzo[b]thiophene-2-carboxamide], the IC50 (STAT3) is reported as 0.021 µM, the IC50 (LNCaP) is reported as 0.036 µM and the IC50 (DU-145) is reported as 0.013 µM.

In the case of `CC(C)(c1cccc(Cn2ccnc2)c1)c1cc(Br)cc(NC(=O)c2cc3cc(NS(C)(=O)=O)ccc3s2)c1` [Example 120, N-(3-(2-(3-((1H-imidazol-1-yl)methyl)phenyl)propan-2-yl)-5-bromophenyl)-5-(methylsulfonamido)benzo[b]thiophene-2-carboxamide], the IC50 (STAT3) is reported as 0.66 µM, the IC50 (LNCaP) is reported as 3.6 µM and the IC50 (DU-145) is reported as 2.2 µM.

`CS(=O)(=O)Nc1cc2cc(C(=O)Nc3cc(Cl)cc(Oc4ccc(F)cc4)c3)sc2cc1Cl` [Example 478, 6-chloro-N-(3-chloro-5-(4-fluorophenoxy)phenyl)-5-(methylsulfonamido)benzo[b]thiophene-2-carboxamide] showed an IC50 (STAT3) of 0.022 µM, an IC50 (LNCaP) of 0.018 µM and an IC50 (DU-145) of 0.012 µM.

`CS(=O)(=O)Nc1cc2cc(C(=O)Nc3cc(Cl)cc(Oc4cncs4)c3)sc2cc1Cl` [Example 472, 6-chloro-N-(3-chloro-5-(thiazol-5-yloxy)phenyl)-5-(methylsulfonamido)benzo[b]thiophene-2-carboxamide] showed an IC50 (STAT3) of 0.1 µM, an IC50 (LNCaP) of 0.37 µM and an IC50 (DU-145) of 0.13 µM.

`CS(=O)(=O)Nc1cc2cc(C(=O)Nc3cc(Cl)cc(Oc4cccc(OC(F)(F)F)c4)c3)sc2cc1Cl` [Example 479, 6-chloro-N-(3-chloro-5-(3-(trifluoromethoxy)phenoxy)phenyl)-5-(methylsulfonamido)benzo[b]thiophene-2-carboxamide] showed an IC50 (STAT3) of 0.014 µM, an IC50 (LNCaP) of 0.008 µM and an IC50 (DU-145) of 0.006 µM.

For `COc1ccc(C(C)(C)c2cc(Cl)cc(NC(=O)c3cc4cc(NS(C)(=O)=O)ccc4s3)c2)s1` [Example 177, N-(3-chloro-5-(2-(5-methoxythiophen-2-yl)propan-2-yl)phenyl)-5-(methylsulfonamido)benzo[b]thiophene-2-carboxamide], the IC50 (STAT3) was 0.047 µM, the IC50 (LNCaP) was 0.089 µM and the IC50 (DU-145) was 0.058 µM.

`CS(=O)(=O)Nc1ccc2sc(C(=O)Nc3cc(Cl)cc(Oc4cc(F)ccc4F)c3)cc2c1` [Example 448, N-(3-chloro-5-(2,5-difluorophenoxy)phenyl)-5-(methylsulfonamido)benzo[b]thiophene-2-carboxamide] gave an IC50 (STAT3) of 0.23 µM, an IC50 (LNCaP) of 0.35 µM and an IC50 (DU-145) of 0.16 µM.

`CC(C)Oc1cc(CN2CCOCC2)cc(C(C)(C)c2cc(F)cc(NC(=O)c3cc4cc(NS(C)(=O)=O)ccc4s3)c2)c1` [Example 137, N-(3-fluoro-5-(2-(3-isopropoxy-5-(morpholinomethyl)phenyl)propan-2-yl)phenyl)-5-(methylsulfonamido)benzo[b]thiophene-2-carboxamide] gave an IC50 (STAT3) of 0.22 µM, an IC50 (LNCaP) of 0.4 µM and an IC50 (DU-145) of 0.1 µM.

For `CC(C)Oc1cc(OC(F)(F)F)cc(C(C)(C)c2cc(Cl)cc(NC(=O)c3cc4cc(OP(=O)(O)O)ccc4s3)c2)c1` [Example 193, 2-((3-chloro-5-(2-(3-isopropoxy-5-(trifluoromethoxy)phenyl)propan-2-yl)phenyl)carbamoyl)benzo[b]thiophen-5-yl dihydrogen phosphate], the IC50 (STAT3) was 0.38 µM, the IC50 (LNCaP) was 0.99 µM and the IC50 (DU-145) was 0.39 µM.

For `CC(C)Oc1cc(OC(F)(F)F)cc(C(C)(C)c2cc(Cl)cc(NC(=O)c3cc4ccc(NS(C)(=O)=O)nc4[nH]3)c2)c1` [Example 100, N-(3-chloro-5-(2-(3-isopropoxy-5-(trifluoromethoxy)phenyl)propan-2-yl)phenyl)-6-(methylsulfonamido)-1H-pyrrolo[2,3-b]pyridine-2-carboxamide], the IC50 (STAT3) was 0.042 µM, the IC50 (LNCaP) was over 10 µM and the IC50 (DU-145) was 0.33 µM.

`CC(C)(c1cc(Cl)cc(NC(=O)c2cc3cc(NS(C)(=O)=O)ccc3s2)c1)c1ccc(Cl)s1` [Example 174, N-(3-chloro-5-(2-(5-chlorothiophen-2-yl)propan-2-yl)phenyl)-5-(methylsulfonamido)benzo[b]thiophene-2-carboxamide] showed an IC50 (STAT3) of 0.1 µM, an IC50 (LNCaP) of 0.091 µM and an IC50 (DU-145) of 0.033 µM.

`CC(C)Oc1cc(CN2CCN(S(C)(=O)=O)CC2)cc(C(C)(C)c2cc(Cl)cc(NC(=O)c3cc4cc(NS(C)(=O)=O)ccc4s3)c2)c1` [Example 128, N-(3-chloro-5-(2-(3-isopropoxy-5-((4-(methylsulfonyl)piperazin-1-yl)methyl)phenyl)propan-2-yl)phenyl)-5-(methylsulfonamido)benzo[b]thiophene-2-carboxamide] gave an IC50 (STAT3) of 0.27 µM, an IC50 (LNCaP) of 0.41 µM and an IC50 (DU-145) of 0.15 µM.

`CS(=O)(=O)Nc1ccc2sc(C(=O)Nc3cc(-c4ccc(F)cc4F)cc(Cl)n3)cc2c1` [Example 337, N-(6-chloro-4-(2,4-difluorophenyl)pyridin-2-yl)-5-(methylsulfonamido)benzo[b]thiophene-2-carboxamide] gave an IC50 (STAT3) of 0.27 µM, an IC50 (LNCaP) of 0.94 µM and an IC50 (DU-145) of 0.43 µM.

Work on `CCn1cccc1C(C)(C)c1cc(Cl)cc(NC(=O)c2cc3cc(NS(C)(=O)=O)ccc3s2)c1` [Example 187, N-(3-chloro-5-(2-(1-ethyl-1H-pyrrol-2-yl)propan-2-yl)phenyl)-5-(methylsulfonamido)benzo[b]thiophene-2-carboxamide] yielded an IC50 (STAT3) of 0.11 µM, an IC50 (LNCaP) of 0.1 µM and an IC50 (DU-145) of 0.042 µM.

For `CC(C)(c1ccsc1)c1cc(Cl)cc(NC(=O)c2cc3cc(NS(C)(=O)=O)ccc3s2)c1` [Example 171, N-(3-chloro-5-(2-(thiophen-3-yl)propan-2-yl)phenyl)-5-(methylsulfonamido)benzo[b]thiophene-2-carboxamide], the IC50 (STAT3) was 0.074 µM, the IC50 (LNCaP) was 0.071 µM and the IC50 (DU-145) was 0.038 µM.

Compound `CC(C)(c1ccncc1)c1cc(Cl)cc(NC(=O)c2cc3cc(NS(C)(=O)=O)ccc3s2)c1` [Example 191, N-(3-chloro-5-(2-(pyridin-4-yl)propan-2-yl)phenyl)-5-(methylsulfonamido)benzo[b]thiophene-2-carboxamide] has an IC50 (STAT3) of 0.54 µM, an IC50 (LNCaP) of 2.2 µM and an IC50 (DU-145) of 0.74 µM.

With `CS(=O)(=O)Nc1ccc2sc(C(=O)Nc3cc(Cl)cc(Oc4ccc(F)cc4)c3)cc2c1` [Example 446, N-(3-chloro-5-(4-fluorophenoxy)phenyl)-5-(methylsulfonamido)benzo[b]thiophene-2-carboxamide] the IC50 (STAT3) was 0.096 µM, the IC50 (LNCaP) was 0.13 µM and the IC50 (DU-145) was 0.065 µM.

With `CC(C)Oc1cc(CN2CCN(C(=O)N(C)C)CC2)cc(C(C)(C)c2cc(Cl)cc(NC(=O)c3cc4cc(NS(C)(=O)=O)ccc4s3)c2)c1` [Example 133, 4-(3-(2-(3-chloro-5-(5-(methylsulfonamido)benzo[b]thiophene-2-carboxamido)phenyl)propan-2-yl)-5-isopropoxybenzyl)-N,N-dimethylpiperazine-1-carboxamide] the IC50 (STAT3) was 0.15 µM, the IC50 (LNCaP) was 0.7 µM and the IC50 (DU-145) was 0.22 µM.

Work on `CC(C)Oc1cc(OC(F)(F)F)cc(C(C)(C)c2cc(Cl)cc(NC(=O)c3cc4cnc(NS(C)(=O)=O)cc4[nH]3)c2)c1` [Example 101, N-(3-chloro-5-(2-(3-isopropoxy-5-(trifluoromethoxy)phenyl)propan-2-yl)phenyl)-6-(methylsulfonamido)-1H-pyrrolo[3,2-c]pyridine-2-carboxamide] yielded an IC50 (STAT3) of 0.28 µM, an IC50 (LNCaP) of 1.1 µM and an IC50 (DU-145) of 0.44 µM.

In the case of `CC(C)Oc1cc(OC(F)(F)F)cc(C(C)(C)c2cc(Cl)cc(NC(=O)c3cn4cc(NS(C)(=O)=O)ccc4n3)c2)c1` [Example 74, N-(3-chloro-5-(2-(3-isopropoxy-5-(trifluoromethoxy)phenyl)propan-2-yl)phenyl)-6-(methylsulfonamido)imidazo[1,2-a]pyridine-2-carboxamide], the IC50 (STAT3) is reported as 2.7 µM, the IC50 (LNCaP) is reported as 6.6 µM and the IC50 (DU-145) is reported as 2.6 µM.
